Results: patent publication US20230131192A1, “1H-PYRAZOLO[4,3-d]PYRIMIDINE COMPOUNDS AS TOLL-LIKE RECEPTOR 7 (TLR7) AGONISTS” (BRISTOL-MYERS SQUIBB COMPANY, priority 2020, published 2023)
pEC50: −log10 of the molar value.

Key:
human TLR7 = target: T1, human TLR7 (Homo sapiens, UniProt Q9NYK1); test: Human TLR7 agonist (reporter) activity assay, HEK-Blue TLR7 cells, SEAP reporter; type: cell-based; settings: 18 h treatment, average where assay was performed multiple times, read-out: hTLR7 Agonism EC50
T1 construct: host or cells: HEK-Blue TLR7 cells (engineered human embryonic kidney cells)
T1 sequence (Q9NYK1 27-1049): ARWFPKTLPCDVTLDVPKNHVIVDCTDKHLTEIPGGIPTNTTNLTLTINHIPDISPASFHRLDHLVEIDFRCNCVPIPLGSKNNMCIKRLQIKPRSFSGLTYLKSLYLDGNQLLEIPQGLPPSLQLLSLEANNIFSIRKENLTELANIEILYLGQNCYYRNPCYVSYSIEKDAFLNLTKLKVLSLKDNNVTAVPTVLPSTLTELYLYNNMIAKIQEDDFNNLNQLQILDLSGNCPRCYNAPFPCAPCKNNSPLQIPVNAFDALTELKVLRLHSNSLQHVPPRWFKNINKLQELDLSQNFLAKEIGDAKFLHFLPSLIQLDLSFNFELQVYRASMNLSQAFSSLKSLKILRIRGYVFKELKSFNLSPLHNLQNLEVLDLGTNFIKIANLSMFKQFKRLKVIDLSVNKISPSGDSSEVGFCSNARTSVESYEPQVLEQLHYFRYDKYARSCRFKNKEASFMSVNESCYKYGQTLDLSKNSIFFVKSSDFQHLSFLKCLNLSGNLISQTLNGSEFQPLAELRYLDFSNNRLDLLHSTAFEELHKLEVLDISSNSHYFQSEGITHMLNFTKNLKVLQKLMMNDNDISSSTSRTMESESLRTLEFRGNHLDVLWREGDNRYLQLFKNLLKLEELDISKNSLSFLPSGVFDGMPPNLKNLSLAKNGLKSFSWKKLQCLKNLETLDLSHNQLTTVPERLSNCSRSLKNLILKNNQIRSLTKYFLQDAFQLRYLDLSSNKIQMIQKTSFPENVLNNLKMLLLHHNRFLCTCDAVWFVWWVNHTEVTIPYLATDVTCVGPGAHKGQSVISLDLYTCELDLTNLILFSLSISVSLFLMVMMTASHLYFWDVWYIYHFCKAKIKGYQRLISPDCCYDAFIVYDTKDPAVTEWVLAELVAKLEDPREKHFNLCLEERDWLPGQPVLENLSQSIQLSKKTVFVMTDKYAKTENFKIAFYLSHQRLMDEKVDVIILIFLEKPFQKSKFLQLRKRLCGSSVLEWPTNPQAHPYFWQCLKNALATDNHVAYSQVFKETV
Protocol: This procedure describes a method for assaying human TLR7 (hTLR7) agonist activity of the compounds disclosed in this specification.
HEK-Blue™ TLR7 cells were added to each well of a 384-well tissue-culture plate (15,000 cells per well) and incubated 16-18 h at 37° C., 5% CO2. Compounds (100 nl) were dispensed into wells containing the HEK-Blue™ TLR cells and the treated cells were incubated at 37° C., 5% CO2. After 18 h treatment ten microliters of freshly-prepared Quanti-Blue™ reagent (Invivogen) was added to each well, incubated for 30 min (37° C., 5% CO2) and SEAP levels measured using an Envision plate reader (OD=620 nm). The half maximal effective concentration values (EC50; compound concentration which induced a response halfway between the assay baseline and maximum) were calculated.

CD69 = test: Induction of CD69 in human whole blood; type: cell-based; settings: 17 hrs, CD69 surface staining, 100% set to 1 uM of resiquimod, average where assay was performed multiple times, read-out: hWB CD69 EC50
Protocol: The induction of Type I interferon (IFN) MX-1 genes and the B-cell activation marker CD69 are downstream events that occur upon activation of the TLR7 pathway. The following is a human whole blood assay that measures their induction in response to a TLR7 agonist.
Heparinized human whole blood was harvested from human subjects and treated with test TLR7 agonist compounds at 1 mM. The blood was diluted with RPMI 1640 media and Echo was used to predot 10 nL per well giving a final concentration of 1 uM (10 nL in 10 uL of blood). After mixing on a shaker for 30 sec, the plates were covered and placed in a 37° C. chamber for o/n=17 hrs. Fixing/lysis buffer was prepared (5×→1× in H2O, warm at 37° C.; Cat # BD 558049) and kept the perm buffer (on ice) for later use.
For surface markers staining (CD69): prepared surface Abs: 0.045 ul hCD14-FITC (ThermoFisher Cat # MHCD1401)+0.6 ul hCD19-ef450 (ThermoFisher Cat #48-0198-42)+1.5 ul hCD69-PE (cat # BD555531)+0.855 ul FACS buffer. Added 3 ul/well, spin1000 rpm for 1 min and mixed on shaker for 30 sec, put on ice for 30 mins. Stop stimulation after 30 minutes with 70 uL of prewarmed 1× fix/lysis buffer and use Feliex mate to resuspend (15 times, change tips for each plate) and incubate at 37 C for 10 minutes.
Centrifuge at 2000 rpm for 5 minutes aspirate with HCS plate washer, mix on shaker for 30 sec and then wash with 70 uL in dPBS and pelleted 2×s (2000 rpm for 5 min) and 50 ul wash in FACS buffer pelleted 1×s(2000 rpm for 5 min). Mix on shaker for 30 sec. For Intracellular markers staining (MX-1): Add 50 ul of BD Perm buffer III and mix on shaker for 30 sec. Incubate on ice for 30 minutes (in the dark). Wash with 50 uL of FACS buffer 2× (spin @2300 rpm×5 min after perm) followed by mixing on shaker for 30 sec. Resuspended in 20 ul of FACS buffer containing MX1 antibody ( )(4812)-Alexa 647: Novus Biologicals #NBP2-43704AF647) 20 ul FACS bf+0.8 ul hlgG+0.04 ul MX-1. Spin 1000 rpm for 1 min, mix on shaker for 30se and the samples were incubated at RT in the dark for 45 minutes followed by washing 2×FACS buffer (spin @2300 rpm×5 min after perm). Resuspend 20 ul (35 uL total per well) of FACS buffer and cover with foil and place in 4° C. to read the following day. Plates were read on iQuePlus. The results were loaded into toolset and […] curves are generated in curve master. The y-axis 100% is set to 1 uM of resiquimod.

Row | Compound | pEC50 (human TLR7) | pEC50 (CD69)
1 | COc1cc(CO)ccc1Cn1ncc2nc(N)nc(NCc3cc(C)on3)c21 [Compound 101, {4-[(5-amino-7-{[(5-methyl-1,2-oxazol-3-yl)methyl]amino}-1H-pyrazolo[4,3-d]pyrimidin-1-yl)methyl]-3-methoxyphenyl}methanol] | 6.45 | 6.33
2 | COc1cc(CNC2CCC2)ccc1Cn1ncc2nc(N)nc(NCc3cc(C)on3)c21 [Compound 102, 1-({4-[(cyclobutylamino)methyl]-2-methoxyphenyl}methyl)-N7-[(5-methyl-1,2-oxazol-3-yl)methyl]-1H-pyrazolo[4,3-d]pyrimidine-5,7-diamine] | 7.13 | 7.59
3 | COc1cc(CNC2CCOCC2)ccc1Cn1ncc2nc(N)nc(NCc3cc(C)on3)c21 [Compound 103, 1-[(2-methoxy-4-{[(oxan-4-yl)amino]methyl}phenyl)methyl]-N7-[(5-methyl-1,2-oxazol-3-yl)methyl]-1H-pyrazolo[4,3-d]pyrimidine-5,7-diamine] | 7.24 | 8.27
4 | COc1cc(CN2CCN(C)CC2)ccc1Cn1ncc2nc(N)nc(NCc3cc(C)on3)c21 [Compound 104, 1-({2-methoxy-4-[(4-methylpiperazin-1-yl)methyl]phenyl}methyl)-N7-[(5-methyl-1,2-oxazol-3-yl)methyl]-1H-pyrazolo[4,3-d]pyrimidine-5,7-diamine] | 7.91 | 8.44
5 | COc1cc(CN2CCN(CCO)CC2)ccc1Cn1ncc2nc(N)nc(NCc3cc(C)on3)c21 [Compound 105, 2-[4-({4-[(5-amino-7-{[(5-methyl-1,2-oxazol-3-yl)methyl]amino}-1H-pyrazolo[4,3-d]pyrimidin-1-yl)methyl]-3-methoxyphenyl}methyl)piperazin-1-yl]ethan-1-ol] | 7.63 | 
6 | COc1cc(CN2CC(OC)C2)ccc1Cn1ncc2nc(N)nc(NCc3cc(C)on3)c21 [Compound 106, 1-({2-methoxy-4-[(3-methoxyazetidin-1-yl)methyl]phenyl}methyl)-N7-[(5-methyl-1,2-oxazol-3-yl)methyl]-1H-pyrazolo[4,3-d]pyrimidine-5,7-diamine] | 7.24 | 8.02
7 | COc1cc(CNC2CCC2)ccc1Cn1ncc2nc(N)nc(NCc3noc(C)n3)c21 [Compound 107, 1-({4-[(cyclobutylamino)methyl]-2-methoxyphenyl}methyl)-N7-[(5-methyl-1,2,4-oxadiazol-3-yl)methyl]-1H-pyrazolo[4,3-d]pyrimidine-5,7-diamine] | 7.33 | 8.23
8 | COc1cc(CO)ccc1Cn1ncc2nc(N)nc(NCc3noc(C)n3)c21 [Compound 116, {4-[(5-amino-7-{[(5-methyl-1,2,4-oxadiazol-3-yl)methyl]amino}-1H-pyrazolo[4,3-d]pyrimidin-1-yl)methyl]-3-methoxyphenyl}methanol] | 6.14 | 
9 | COc1cc(CN2CCN(CCO)CC2)ccc1Cn1nc(C)c2nc(N)nc(NCc3noc(C)n3)c21 [Compound 132, 2-[4-({4-[(5-amino-3-methyl-7-{[(5-methyl-1,2,4-oxadiazol-3-yl)methyl]amino}-1H-pyrazolo[4,3-d]pyrimidin-1-yl)methyl]-3-methoxyphenyl}methyl)piperazin-1-yl]ethan-1-ol] | 6.37 | 
10 | COc1cc(CNC2CCOCC2)ccc1Cn1nc(C)c2nc(N)nc(NCc3noc(C)n3)c21 [Compound 133, 1-[(2-methoxy-4-{[(oxan-4-yl)amino]methyl}phenyl)methyl]-3-methyl-N7-[(5-methyl-1,2,4-oxadiazol-3-yl)methyl]-1H-pyrazolo[4,3-d]pyrimidine-5,7-diamine] | 5.95 | 
11 | COc1cc(CN2CCN(C)CC2)ccc1Cn1nc(C)c2nc(N)nc(NCc3noc(C)n3)c21 [Compound 134, 1-({2-methoxy-4-[(4-methylpiperazin-1-yl)methyl]phenyl}methyl)-3-methyl-N7-[(5-methyl-1,2,4-oxadiazol-3-yl)methyl]-1H-pyrazolo[4,3-d]pyrimidine-5,7-diamine] | 6.80 | 
